From PubChem BioAssay (NCI)
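The concentration for 50% growth inhibition is given as GI50. TGI: total growth inhibition.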

What was measured:
Assay in all cases: NCI anticancer screen, dose series, 384-well format
HCC-2998 colon = test system: HCC-2998 colon
CCRF-CEM leukemia = test system: CCRF-CEM leukemia
NCI-H226 lung = test system: NCI-H226 lung
UACC-62 melanoma = test system: UACC-62 melanoma
SNB-19 CNS = test system: SNB-19 CNS
HL-60(TB) leukemia = test system: HL-60(TB) leukemia
ACHN renal = test system: ACHN renal
OVCAR-3 ovarian = test system: OVCAR-3 ovarian
KM12 colon = test system: KM12 colon
HCT-116 colon = test system: HCT-116 colon
SK-MEL-5 melanoma = test system: SK-MEL-5 melanoma
MDA-MB-231 breast = test system: MDA-MB-231 breast
PC-3 prostate = test system: PC-3 prostate
SK-MEL-28 melanoma = test system: SK-MEL-28 melanoma
MDA-MB-468 breast = test system: MDA-MB-468 breast
NCI/ADR-RES ovarian = test system: NCI/ADR-RES ovarian
HOP-62 NSCLC = test system: HOP-62 NSCLC
UACC-257 melanoma = test system: UACC-257 melanoma
HOP-92 NSCLC = test system: HOP-92 NSCLC
CAKI-1 renal = test system: CAKI-1 renal
SK-MEL-2 melanoma = test system: SK-MEL-2 melanoma
K-562 leukemia = test system: K-562 leukemia
BT-549 breast = test system: BT-549 breast
DU-145 prostate = test system: DU-145 prostate
TK-10 renal = test system: TK-10 renal
A498 renal = test system: A498 renal
OVCAR-5 ovarian = test system: OVCAR-5 ovarian
COLO 205 colon = test system: COLO 205 colon
T-47D breast = test system: T-47D breast
A549 NSCLC = test system: A549 NSCLC
RXF 393 renal = test system: RXF 393 renal
NCI-H522 lung = test system: NCI-H522 lung
HCT-15 colon = test system: HCT-15 colon
SF-268 CNS = test system: SF-268 CNS
MCF7 breast = test system: MCF7 breast
U251 glioblastoma = test system: U251 glioblastoma
SK-OV-3 ovarian = test system: SK-OV-3 ovarian
RPMI-8226 leukemia = test system: RPMI-8226 leukemia
MDA-MB-435 melanoma = test system: MDA-MB-435 melanoma
SF-539 CNS = test system: SF-539 CNS
NCI-H322M lung = test system: NCI-H322M lung
M14 melanoma = test system: M14 melanoma
NCI-H23 lung = test system: NCI-H23 lung
OVCAR-8 ovarian = test system: OVCAR-8 ovarian
LOX IMVI melanoma = test system: LOX IMVI melanoma
SF-295 CNS = test system: SF-295 CNS
SN12C renal = test system: SN12C renal
IGROV1 ovarian = test system: IGROV1 ovarian
SW-620 colon = test system: SW-620 colon
SR leukemia = test system: SR leukemia
786-0 renal = test system: 786-0 renal
HT29 colon = test system: HT29 colon
MOLT-4 leukemia = test system: MOLT-4 leukemia
OVCAR-4 ovarian = test system: OVCAR-4 ovarian
UO-31 renal = test system: UO-31 renal
NCI-H460 NSCLC = test system: NCI-H460 NSCLC

Question: How did the GI50 (HCC-2998 colon) turn out when CNC(C)C(=O)N[C@H](C(=O)N1CCC[C@@H]1CN(CCc1ccccc1)C(=O)C(F)(F)F)[C@H](C)OCC#CC#CCO[C@H](C)[C@H](NC(=O)[C@H](C)NC)C(=O)N1CCC[C@H]1CN(CCc1ccccc1)C(=O)C(F)(F)F (some centres not stated) was run?
Answer: 1.31 µM

Question: And the TGI (HCC-2998 colon)?
Answer: 2.62 µM

Question: And the GI50 (CCRF-CEM leukemia)?
Answer: 0.0253 µM

Question: And the TGI (CCRF-CEM leukemia)?
Answer: 1.43 µM

Question: What about the GI50 (NCI-H226 lung) of the same molecule?
Answer: 3.39 µM

Question: And the TGI (NCI-H226 lung)?
Answer: 16.7 µM

Question: And the GI50 (UACC-62 melanoma)?
Answer: 1.73 µM

Question: What about the TGI (UACC-62 melanoma) of the same molecule?
Answer: 3.12 µM

Question: And the GI50 (SNB-19 CNS)?
Answer: 6.77 µM

Question: And the TGI (SNB-19 CNS)?
Answer: 21.4 µM

Question: What about the GI50 (HL-60(TB) leukemia) of the same molecule?
Answer: < 0.01 µM

Question: And the TGI (HL-60(TB) leukemia)?
Answer: < 0.01 µM

Question: And the GI50 (ACHN renal)?
Answer: > 100 µM

Question: What about the TGI (ACHN renal) of the same molecule?
Answer: > 100 µM

Question: What about the GI50 (OVCAR-3 ovarian) of the same molecule?
Answer: 1.25 µM

Question: What about the TGI (OVCAR-3 ovarian) of the same molecule?
Answer: 2.55 µM

Question: What about the GI50 (KM12 colon) of the same molecule?
Answer: 1.72 µM

Question: What about the TGI (KM12 colon) of the same molecule?
Answer: 3.13 µM

Question: And the GI50 (HCT-116 colon)?
Answer: 1.92 µM

Question: What about the TGI (HCT-116 colon) of the same molecule?
Answer: 3.35 µM

Question: And the GI50 (SK-MEL-5 melanoma)?
Answer: 0.149 µM

Question: What about the TGI (SK-MEL-5 melanoma) of the same molecule?
Answer: 0.73 µM

Question: And the GI50 (MDA-MB-231 breast)?
Answer: < 0.01 µM

Question: What about the TGI (MDA-MB-231 breast) of the same molecule?
Answer: < 0.01 µM

Question: And the GI50 (PC-3 prostate)?
Answer: 4.08 µM

Question: And the TGI (PC-3 prostate)?
Answer: 13.4 µM

Question: And the GI50 (SK-MEL-28 melanoma)?
Answer: 1.45 µM

Question: What about the TGI (SK-MEL-28 melanoma) of the same molecule?
Answer: 2.78 µM

Question: What about the GI50 (MDA-MB-468 breast) of the same molecule?
Answer: < 0.01 µM

Question: What about the TGI (MDA-MB-468 breast) of the same molecule?
Answer: 0.0785 µM

Question: What about the GI50 (NCI/ADR-RES ovarian) of the same molecule?
Answer: > 100 µM

Question: And the TGI (NCI/ADR-RES ovarian)?
Answer: > 100 µM

Question: What about the GI50 (HOP-62 NSCLC) of the same molecule?
Answer: 0.906 µM

Question: What about the TGI (HOP-62 NSCLC) of the same molecule?
Answer: 2.19 µM

Question: And the GI50 (UACC-257 melanoma)?
Answer: 1.6 µM

Question: And the TGI (UACC-257 melanoma)?
Answer: 2.96 µM

Question: And the GI50 (HOP-92 NSCLC)?
Answer: 0.31 µM

Question: And the TGI (HOP-92 NSCLC)?
Answer: 1.78 µM

Question: And the GI50 (CAKI-1 renal)?
Answer: 6.02 µM

Question: And the TGI (CAKI-1 renal)?
Answer: 17.7 µM

Question: What about the GI50 (SK-MEL-2 melanoma) of the same molecule?
Answer: < 0.01 µM

Question: What about the TGI (SK-MEL-2 melanoma) of the same molecule?
Answer: < 0.01 µM

Question: And the GI50 (K-562 leukemia)?
Answer: 1.81 µM

Question: What about the TGI (K-562 leukemia) of the same molecule?
Answer: 3.23 µM

Question: And the GI50 (BT-549 breast)?
Answer: < 0.01 µM

Question: And the TGI (BT-549 breast)?
Answer: 2.16 µM

Question: What about the GI50 (DU-145 prostate) of the same molecule?
Answer: 1.74 µM

Question: And the TGI (DU-145 prostate)?
Answer: 5.18 µM

Question: What about the GI50 (TK-10 renal) of the same molecule?
Answer: 2.52 µM

Question: And the TGI (TK-10 renal)?
Answer: 5.6 µM

Question: What about the GI50 (A498 renal) of the same molecule?
Answer: 2.07 µM

Question: And the TGI (A498 renal)?
Answer: 4.56 µM

Question: What about the GI50 (OVCAR-5 ovarian) of the same molecule?
Answer: 58.9 µM

Question: And the TGI (OVCAR-5 ovarian)?
Answer: > 100 µM

Question: And the GI50 (COLO 205 colon)?
Answer: 1.69 µM

Question: And the TGI (COLO 205 colon)?
Answer: 3.08 µM

Question: And the GI50 (T-47D breast)?
Answer: 1.6 µM

Question: And the TGI (T-47D breast)?
Answer: 2.96 µM

Question: What about the GI50 (A549 NSCLC) of the same molecule?
Answer: 3.32 µM

Question: What about the TGI (A549 NSCLC) of the same molecule?
Answer: 17.2 µM

Question: And the GI50 (RXF 393 renal)?
Answer: < 0.01 µM

Question: What about the TGI (RXF 393 renal) of the same molecule?
Answer: 0.0625 µM

Question: What about the GI50 (NCI-H522 lung) of the same molecule?
Answer: 0.906 µM

Question: And the TGI (NCI-H522 lung)?
Answer: 2.15 µM

Question: And the GI50 (HCT-15 colon)?
Answer: 21.3 µM

Question: And the TGI (HCT-15 colon)?
Answer: > 100 µM

Question: And the GI50 (SF-268 CNS)?
Answer: 1.74 µM

Question: What about the TGI (SF-268 CNS) of the same molecule?
Answer: 3.13 µM

Question: And the GI50 (MCF7 breast)?
Answer: 1.3 µM

Question: What about the TGI (MCF7 breast) of the same molecule?
Answer: 2.59 µM

Question: What about the GI50 (U251 glioblastoma) of the same molecule?
Answer: 1.71 µM

Question: And the TGI (U251 glioblastoma)?
Answer: 3.1 µM

Question: And the GI50 (SK-OV-3 ovarian)?
Answer: < 0.01 µM

Question: What about the TGI (SK-OV-3 ovarian) of the same molecule?
Answer: 0.0719 µM

Question: What about the GI50 (RPMI-8226 leukemia) of the same molecule?
Answer: 0.617 µM

Question: What about the TGI (RPMI-8226 leukemia) of the same molecule?
Answer: 1.94 µM

Question: What about the GI50 (MDA-MB-435 melanoma) of the same molecule?
Answer: 0.0981 µM

Question: And the TGI (MDA-MB-435 melanoma)?
Answer: 1.94 µM

Question: And the GI50 (SF-539 CNS)?
Answer: 1.54 µM

Question: What about the TGI (SF-539 CNS) of the same molecule?
Answer: 2.88 µM

Question: And the GI50 (NCI-H322M lung)?
Answer: 5.6 µM

Question: And the TGI (NCI-H322M lung)?
Answer: 22.7 µM

Question: And the GI50 (M14 melanoma)?
Answer: 1.8 µM

Question: And the TGI (M14 melanoma)?
Answer: 3.21 µM

Question: What about the GI50 (NCI-H23 lung) of the same molecule?
Answer: 0.268 µM

Question: What about the TGI (NCI-H23 lung) of the same molecule?
Answer: 7.59 µM

Question: And the GI50 (OVCAR-8 ovarian)?
Answer: 1.05 µM

Question: And the TGI (OVCAR-8 ovarian)?
Answer: 2.24 µM

Question: What about the GI50 (LOX IMVI melanoma) of the same molecule?
Answer: 2.06 µM

Question: What about the TGI (LOX IMVI melanoma) of the same molecule?
Answer: 3.51 µM

Question: What about the GI50 (SF-295 CNS) of the same molecule?
Answer: 2.65 µM

Question: And the TGI (SF-295 CNS)?
Answer: 14.5 µM

Question: And the GI50 (SN12C renal)?
Answer: 2.34 µM

Question: And the TGI (SN12C renal)?
Answer: 4.06 µM

Question: And the GI50 (IGROV1 ovarian)?
Answer: 5.72 µM

Question: And the TGI (IGROV1 ovarian)?
Answer: 83.4 µM

Question: And the GI50 (SW-620 colon)?
Answer: 1.82 µM

Question: And the TGI (SW-620 colon)?
Answer: 3.24 µM

Question: What about the GI50 (SR leukemia) of the same molecule?
Answer: 0.342 µM

Question: What about the TGI (SR leukemia) of the same molecule?
Answer: 1.96 µM

Question: What about the GI50 ([…]-0 renal) of the same molecule?
Answer: 1.76 µM

Question: What about the TGI (786-0 renal) of the same molecule?
Answer: 3.16 µM

Question: What about the GI50 (HT29 colon) of the same molecule?
Answer: 1.69 µM

Question: And the TGI (HT29 colon)?
Answer: 3.1 µM

Question: What about the GI50 (MOLT-4 leukemia) of the same molecule?
Answer: 1.63 µM

Question: What about the TGI (MOLT-4 leukemia) of the same molecule?
Answer: 2.99 µM

Question: What about the GI50 (OVCAR-4 ovarian) of the same molecule?
Answer: < 0.01 µM

Question: And the TGI (OVCAR-4 ovarian)?
Answer: < 0.01 µM

Question: What about the GI50 (UO-31 renal) of the same molecule?
Answer: > 100 µM

Question: And the TGI (UO-31 renal)?
Answer: > 100 µM

Question: What about the GI50 (NCI-H460 NSCLC) of the same molecule?
Answer: 1.68 µM

Question: And the TGI (NCI-H460 NSCLC)?
Answer: 3.07 µM
